Patent publication US10457655B2, “Compounds and compositions for inhibition of FASN” (FORMA Therapeutics, Inc., priority 2013, dated 2019)
Read-outs that look alike come from different tables or passages of the source. Each block holds one compound with its values, some of them ahead of it.

Target: FASN enzyme (Homo sapiens, UniProt P49327)
Experiment: Enzymatic Assay for FASN Inhibitors
Format: biochemical
Method: Assays were performed in a 384-well black plate to measure the inhibition of FASN activities by individual compounds herein disclosed. An aliquot of 250 nL of compound was incubated with 10 μL of 40 nM FASN enzyme in assay buffer (50 mM HEPES pH=7.3, 0.5 mM EDTA, 1 mM Ascorbate, 100 mM NaCl and 0.04% TritonX-100) in each well at 25° C. for 60 minutes. After the plate was centrifuged briefly, 10 μL of substrate mix (20 μM Acetyl-CoA, 60 μM Malonyl-CoA, and 100 μM NADPH in assay buffer) was added to each well. The reaction was maintained at 25° C. for 90 minutes. The reaction was then quenched by adding 10 μL of 90 μM 7-Diethylamino-3-(4′-Maleimidylpheynyl)-4-Methylcoumarin in 50/50 Ethanol/H2O solution. The assay plate was incubated at 25° C. for 15 minutes, and read on a plate reader with excitation and emission wavelength at 360 nm and 530 nm, respectively. The IC50 of a given compound was calculated by fitting the dose response curve with a four parameter logistic equation.

[1] = FASN enzymatic assay, Table 2-3
[2] = FASN enzymatic assay, Table 2-2

Sequence of FASN enzyme (P49327 whole entry): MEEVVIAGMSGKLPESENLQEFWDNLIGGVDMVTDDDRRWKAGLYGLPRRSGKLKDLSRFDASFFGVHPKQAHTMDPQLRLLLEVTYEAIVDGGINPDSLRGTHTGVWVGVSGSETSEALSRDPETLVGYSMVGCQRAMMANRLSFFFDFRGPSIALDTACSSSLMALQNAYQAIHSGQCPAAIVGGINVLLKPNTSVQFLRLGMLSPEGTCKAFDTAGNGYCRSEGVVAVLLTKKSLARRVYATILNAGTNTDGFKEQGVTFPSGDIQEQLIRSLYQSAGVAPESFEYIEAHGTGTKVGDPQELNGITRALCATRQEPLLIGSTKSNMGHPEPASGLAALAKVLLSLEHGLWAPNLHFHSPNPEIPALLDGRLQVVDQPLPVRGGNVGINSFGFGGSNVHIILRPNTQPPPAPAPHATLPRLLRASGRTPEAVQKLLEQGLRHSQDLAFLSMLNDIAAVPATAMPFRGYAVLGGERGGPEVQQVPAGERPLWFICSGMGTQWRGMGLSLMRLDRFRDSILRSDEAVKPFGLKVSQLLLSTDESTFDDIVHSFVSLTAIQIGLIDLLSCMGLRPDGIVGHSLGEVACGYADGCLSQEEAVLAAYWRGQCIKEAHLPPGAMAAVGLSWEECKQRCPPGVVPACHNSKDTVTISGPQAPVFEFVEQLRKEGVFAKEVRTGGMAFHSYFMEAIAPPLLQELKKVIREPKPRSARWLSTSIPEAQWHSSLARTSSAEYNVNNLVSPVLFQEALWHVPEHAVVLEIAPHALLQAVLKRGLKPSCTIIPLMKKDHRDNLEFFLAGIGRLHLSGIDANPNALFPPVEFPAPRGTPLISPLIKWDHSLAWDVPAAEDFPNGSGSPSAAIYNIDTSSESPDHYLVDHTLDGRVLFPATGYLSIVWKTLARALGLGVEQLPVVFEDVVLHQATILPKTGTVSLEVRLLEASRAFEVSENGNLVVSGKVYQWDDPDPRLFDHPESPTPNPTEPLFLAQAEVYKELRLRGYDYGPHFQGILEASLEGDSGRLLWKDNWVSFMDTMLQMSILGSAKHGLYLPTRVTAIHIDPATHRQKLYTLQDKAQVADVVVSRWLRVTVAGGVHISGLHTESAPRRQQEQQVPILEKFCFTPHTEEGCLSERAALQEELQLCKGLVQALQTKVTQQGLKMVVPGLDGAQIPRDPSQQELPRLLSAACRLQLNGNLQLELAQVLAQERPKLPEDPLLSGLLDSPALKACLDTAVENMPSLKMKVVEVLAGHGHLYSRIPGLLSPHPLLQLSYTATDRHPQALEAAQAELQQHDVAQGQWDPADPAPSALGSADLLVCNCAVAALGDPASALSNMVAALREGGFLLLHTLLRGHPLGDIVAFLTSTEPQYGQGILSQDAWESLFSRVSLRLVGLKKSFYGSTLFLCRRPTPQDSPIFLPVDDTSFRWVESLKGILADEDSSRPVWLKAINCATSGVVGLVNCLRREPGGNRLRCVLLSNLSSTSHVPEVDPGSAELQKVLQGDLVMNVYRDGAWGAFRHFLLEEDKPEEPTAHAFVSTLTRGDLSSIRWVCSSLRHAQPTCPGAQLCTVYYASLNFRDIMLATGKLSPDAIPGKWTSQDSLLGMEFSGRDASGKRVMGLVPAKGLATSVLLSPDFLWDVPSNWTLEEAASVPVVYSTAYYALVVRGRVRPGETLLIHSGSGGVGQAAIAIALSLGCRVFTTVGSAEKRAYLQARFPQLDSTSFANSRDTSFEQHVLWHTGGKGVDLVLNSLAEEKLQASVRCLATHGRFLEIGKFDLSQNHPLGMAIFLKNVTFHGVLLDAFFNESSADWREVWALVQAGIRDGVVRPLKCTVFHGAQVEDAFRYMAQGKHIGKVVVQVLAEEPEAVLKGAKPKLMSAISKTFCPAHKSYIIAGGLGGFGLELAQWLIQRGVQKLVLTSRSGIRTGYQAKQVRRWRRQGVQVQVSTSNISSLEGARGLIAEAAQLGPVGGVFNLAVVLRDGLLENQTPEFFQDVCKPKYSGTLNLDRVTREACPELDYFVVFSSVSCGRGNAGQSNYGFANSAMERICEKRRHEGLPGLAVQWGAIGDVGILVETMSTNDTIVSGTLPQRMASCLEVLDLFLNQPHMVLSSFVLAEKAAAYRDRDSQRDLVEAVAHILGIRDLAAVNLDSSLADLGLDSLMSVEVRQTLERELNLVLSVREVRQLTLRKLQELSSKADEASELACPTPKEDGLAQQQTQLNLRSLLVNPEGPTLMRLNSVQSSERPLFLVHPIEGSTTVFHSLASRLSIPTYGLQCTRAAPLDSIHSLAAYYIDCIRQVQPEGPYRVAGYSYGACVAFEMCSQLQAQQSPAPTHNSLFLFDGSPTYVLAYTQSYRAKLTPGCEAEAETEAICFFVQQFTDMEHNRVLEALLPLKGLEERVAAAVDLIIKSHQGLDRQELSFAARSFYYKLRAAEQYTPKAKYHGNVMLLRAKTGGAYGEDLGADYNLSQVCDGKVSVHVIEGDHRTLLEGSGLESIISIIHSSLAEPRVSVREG

IC50: < 500 nM
Structure (SMILES): C[C@@H]1CN(C(=O)C2(O)CC2)CCN1C(=O)c1ccc(-c2ccc3c(c2)ncn3C)cc1 [1-[(3R)-3-methyl-4-[4-(1-methyl-1H-1,3-benzodiazol-5-yl)benzoyl]piperazine-1-carbonyl]cyclopropan-1-ol]

IC50: < 500 nM
Structure (SMILES): C[C@@H]1CN(C(=O)C2(O)CC2)CCN1C(=O)c1ccc(-c2nc3ccc(F)cc3o2)cc1 [1-[(3R)-4-[4-(6-fluoro-1,3-benzoxazol-2-yl)benzoyl]-3-methylpiperazine-1-carbonyl]cyclopropan-1-ol]

IC50: < 500 nM
Structure (SMILES): C[C@H]1CN(C(=O)C2(N)CC2)CCN1C(=O)c1ccc(-c2ccc3c(c2)ncn3C)cc1 [1-[(3S)-3-methyl-4-[4-(1-methyl-1H-1,3-benzodiazol-5-yl)benzoyl]piperazine-1-carbonyl]cyclopropan-1-amine]

IC50: < 500 nM
Structure (SMILES): C[C@H]1CN(C(=O)C2(O)CC2)CCN1C(=O)c1ccc(-c2ccc(Cl)cc2F)cc1 [1-[(3S)-4-[4-(4-chloro-2-fluorophenyl)benzoyl]-3-methylpiperazine-1-carbonyl]cyclopropan-1-ol]

IC50: < 500 nM
Structure (SMILES): C[C@H]1CN(C(=O)C2(O)CC2)CCN1C(=O)c1ccc(-c2nc3ccc(F)cc3o2)cc1 [1-[(3S)-4-[4-(6-fluoro-1,3-benzoxazol-2-yl)benzoyl]-3-methylpiperazine-1-carbonyl]cyclopropan-1-ol]

IC50: < 500 nM
Structure (SMILES): O=C(c1ccc(-c2ccc3cc(F)ccc3n2)c(F)c1F)N1CCN(C(=O)C2(O)CC2)CC1 [1-[(4-{[2,3-difluoro-4-(6-fluoroquinolin-2-yl)phenyl]carbonyl}piperazin-1-yl)carbonyl]cyclopropan-1-ol]

IC50: < 500 nM
Structure (SMILES): COc1ccc2nc(-c3ccc(C(=O)N4CCN(C(=O)C5(O)CC5)CC4)c(F)c3F)ccc2c1 [1-[(4-{[2,3-difluoro-4-(6-methoxyquinolin-2-yl)phenyl]carbonyl}piperazin-1-yl)carbonyl]cyclopropan-1-ol]

IC50 [1]: ≥ 5000 nM
Structure (SMILES): Cc1nc(-c2ccc3scnc3c2)sc1C(=O)N1CCN(C(=O)C2(O)CC2)CC1 [1-[(4-{[2-(1,3-benzothiazol-5-yl)-4-methyl-1,3-thiazol-5-yl]carbonyl}piperazin-1-yl)carbonyl]cyclopropan-1-ol]

IC50 [2]: 500 to 5000 nM
Structure (SMILES): O=C(c1ccc2nc(-c3ccc(F)cc3)sc2c1)N1CCN(C(=O)C2(O)CC2)CC1 [1-[(4-{[2-(4-fluorophenyl)-1,3-benzothiazol-6-yl]carbonyl}piperazin-1-yl)carbonyl]cyclopropan-1-ol]

IC50: < 500 nM
Structure (SMILES): O=C(c1ccc(-c2ccc3cc(F)ccc3n2)cc1F)N1CCN(C(=O)C2(O)CC2)CC1 [1-[(4-{[2-fluoro-4-(6-fluoroquinolin-2-yl)phenyl]carbonyl}piperazin-1-yl)carbonyl]cyclopropan-1-ol]

IC50 [2]: 500 to 5000 nM
Structure (SMILES): COc1cc(-c2cnc3ccccc3c2)ccc1C(=O)N1CCN(C(=O)C2(O)CC2)CC1 [1-[(4-{[2-methoxy-4-(quinolin-3-yl)phenyl]carbonyl}piperazin-1-yl)carbonyl]cyclopropan-1-ol]

IC50 [2]: 500 to 5000 nM
Structure (SMILES): COc1cc(-c2ccc3ncccc3c2)ccc1C(=O)N1CCN(C(=O)C2(O)CC2)CC1 [1-[(4-{[2-methoxy-4-(quinolin-6-yl)phenyl]carbonyl}piperazin-1-yl)carbonyl]cyclopropan-1-ol]

IC50: < 500 nM
Structure (SMILES): O=C(c1ccc(-c2ccc3ncccc3c2)c(F)c1)N1CCN(C(=O)C2(O)CC2)CC1 [1-[(4-{[3-fluoro-4-(quinolin-6-yl)phenyl]carbonyl}piperazin-1-yl)carbonyl]cyclopropan-1-ol]

IC50 [2]: 500 to 5000 nM
Structure (SMILES): COc1cc(C(=O)N2CCN(C(=O)C3(O)CC3)CC2)ccc1-c1ccc2ncccc2c1 [1-[(4-{[3-methoxy-4-(quinolin-6-yl)phenyl]carbonyl}piperazin-1-yl)carbonyl]cyclopropan-1-ol]

IC50 [2]: 500 to 5000 nM
Structure (SMILES): COc1cc(-c2ccc3scnc3c2)ccc1C(=O)N1CCN(C(=O)C2(O)CC2)CC1 [1-[(4-{[4-(1,3-benzothiazol-5-yl)-2-methoxyphenyl]carbonyl}piperazin-1-yl)carbonyl]cyclopropan-1-ol]

IC50: < 500 nM
Structure (SMILES): O=C(c1ccc(-c2cccc3ocnc23)cc1)N1CCN(C(=O)C2(O)CC2)CC1 [1-[(4-{[4-(1,3-benzoxazol-4-yl)phenyl]carbonyl}piperazin-1-yl)carbonyl]cyclopropan-1-ol]

IC50 [1]: ≥ 5000 nM
Structure (SMILES): O=C(c1ccc(-c2cnc3cccnc3c2)cc1)N1CCN(C(=O)C2(O)CC2)CC1 [1-[(4-{[4-(1,5-naphthyridin-3-yl)phenyl]carbonyl}piperazin-1-yl)carbonyl]cyclopropan-1-ol]

IC50 [2]: 500 to 5000 nM
Structure (SMILES): Cn1c(-c2ccc(C(=O)N3CCN(C(=O)C4(O)CC4)CC3)cc2)nc2ccccc21 [1-[(4-{[4-(1-methyl-1H-1,3-benzodiazol-2-yl)phenyl]carbonyl}piperazin-1-yl)carbonyl]cyclopropan-1-ol]

IC50: < 500 nM
Structure (SMILES): Cn1ncc2cc(-c3ccc(C(=O)N4CCN(C(=O)C5(O)CC5)CC4)cc3)ccc21 [1-[(4-{[4-(1-methyl-1H-indazol-5-yl)phenyl]carbonyl}piperazin-1-yl)carbonyl]cyclopropan-1-ol]

IC50 [1]: ≥ 5000 nM
Structure (SMILES): Cn1ncc2cccc(-c3ccc(C(=O)N4CCN(C(=O)C5(O)CC5)CC4)cc3)c21 [1-[(4-{[4-(1-methyl-1H-indazol-7-yl)phenyl]carbonyl}piperazin-1-yl)carbonyl]cyclopropan-1-ol]

IC50: < 500 nM
Structure (SMILES): Cn1ccc2cc(-c3ccc(C(=O)N4CCN(C(=O)C5(O)CC5)CC4)cc3)ccc21 [1-[(4-{[4-(1-methyl-1H-indol-5-yl)phenyl]carbonyl}piperazin-1-yl)carbonyl]cyclopropan-1-ol]

IC50: < 500 nM
Structure (SMILES): O=C(c1ccc(-c2cc3ccccc3[nH]2)cc1)N1CCN(C(=O)C2(O)CC2)CC1 [1-[(4-{[4-(1H-indol-2-yl)phenyl]carbonyl}piperazin-1-yl)carbonyl]cyclopropan-1-ol]

IC50 [2]: 500 to 5000 nM
Structure (SMILES): O=C(c1ccc(-c2ccc3nonc3c2)cc1)N1CCN(C(=O)C2(O)CC2)CC1 [1-[(4-{[4-(2,1,3-benzoxadiazol-5-yl)phenyl]carbonyl}piperazin-1-yl)carbonyl]cyclopropan-1-ol]

IC50: < 500 nM
Structure (SMILES): O=C(c1ccc(-c2cccc(Cl)c2Cl)cc1)N1CCN(C(=O)C2(O)CC2)CC1 [1-[(4-{[4-(2,3-dichlorophenyl)phenyl]carbonyl}piperazin-1-yl)carbonyl]cyclopropan-1-ol]

IC50 [1]: ≥ 5000 nM
Structure (SMILES): O=C(c1ccc(-c2cccc(F)c2F)cc1)N1CCN(C(=O)C2(O)CC2)CC1 [1-[(4-{[4-(2,3-difluorophenyl)phenyl]carbonyl}piperazin-1-yl)carbonyl]cyclopropan-1-ol]

IC50 [1]: ≥ 5000 nM
Structure (SMILES): COc1c(Cl)ccc(-c2ccc(C(=O)N3CCN(C(=O)C4(O)CC4)CC3)cc2)c1Cl [1-[(4-{[4-(2,4-dichloro-3-methoxyphenyl)phenyl]carbonyl}piperazin-1-yl)carbonyl]cyclopropan-1-ol]

IC50: < 500 nM
Structure (SMILES): O=C(c1ccc(-c2cc(Cl)ccc2Cl)cc1)N1CCN(C(=O)C2(O)CC2)CC1 [1-[(4-{[4-(2,5-dichlorophenyl)phenyl]carbonyl}piperazin-1-yl)carbonyl]cyclopropan-1-ol]

IC50 [1]: ≥ 5000 nM
Structure (SMILES): O=C(c1ccc(-c2cc(F)ccc2F)cc1)N1CCN(C(=O)C2(O)CC2)CC1 [1-[(4-{[4-(2,5-difluorophenyl)phenyl]carbonyl}piperazin-1-yl)carbonyl]cyclopropan-1-ol]

IC50 [1]: ≥ 5000 nM
Structure (SMILES): COc1ccc(-c2ccc(C(=O)N3CCN(C(=O)C4(O)CC4)CC3)cc2)c(OC)n1 [1-[(4-{[4-(2,6-dimethoxypyridin-3-yl)phenyl]carbonyl}piperazin-1-yl)carbonyl]cyclopropan-1-ol]

IC50: < 500 nM
Structure (SMILES): O=C(c1ccc(-c2ccc(F)cc2Cl)cc1)N1CCN(C(=O)C2(O)CC2)CC1 [1-[(4-{[4-(2-chloro-4-fluorophenyl)phenyl]carbonyl}piperazin-1-yl)carbonyl]cyclopropan-1-ol]

IC50 [1]: ≥ 5000 nM
Structure (SMILES): COc1ccc(-c2ccc(C(=O)N3CCN(C(=O)C4(O)CC4)CC3)cc2)c(Cl)c1 [1-[(4-{[4-(2-chloro-4-methoxyphenyl)phenyl]carbonyl}piperazin-1-yl)carbonyl]cyclopropan-1-ol]

IC50 [1]: ≥ 5000 nM
Structure (SMILES): O=C(c1ccc(-c2cc(F)ccc2Cl)cc1)N1CCN(C(=O)C2(O)CC2)CC1 [1-[(4-{[4-(2-chloro-5-fluorophenyl)phenyl]carbonyl}piperazin-1-yl)carbonyl]cyclopropan-1-ol]

IC50 [2]: 500 to 5000 nM
Structure (SMILES): COc1cccc(-c2ccc(C(=O)N3CCN(C(=O)C4(O)CC4)CC3)cc2)c1F [1-[(4-{[4-(2-fluoro-3-methoxyphenyl)phenyl]carbonyl}piperazin-1-yl)carbonyl]cyclopropan-1-ol]

IC50 [2]: 500 to 5000 nM
Structure (SMILES): Cc1cccc(-c2ccc(C(=O)N3CCN(C(=O)C4(O)CC4)CC3)cc2)c1F [1-[(4-{[4-(2-fluoro-3-methylphenyl)phenyl]carbonyl}piperazin-1-yl)carbonyl]cyclopropan-1-ol]

IC50 [2]: 500 to 5000 nM
Structure (SMILES): COc1ccc(-c2ccc(C(=O)N3CCN(C(=O)C4(O)CC4)CC3)cc2)c(F)c1 [1-[(4-{[4-(2-fluoro-4-methoxyphenyl)phenyl]carbonyl}piperazin-1-yl)carbonyl]cyclopropan-1-ol]

IC50 [1]: ≥ 5000 nM
Structure (SMILES): Cc1ccc(-c2ccc(C(=O)N3CCN(C(=O)C4(O)CC4)CC3)cc2)c(F)c1 [1-[(4-{[4-(2-fluoro-4-methylphenyl)phenyl]carbonyl}piperazin-1-yl)carbonyl]cyclopropan-1-ol]

IC50 [1]: ≥ 5000 nM
Structure (SMILES): COc1ccc(F)c(-c2ccc(C(=O)N3CCN(C(=O)C4(O)CC4)CC3)cc2)c1 [1-[(4-{[4-(2-fluoro-5-methoxyphenyl)phenyl]carbonyl}piperazin-1-yl)carbonyl]cyclopropan-1-ol]
